From US8957190B2, “Use of heat-resistant biotin-binding protein, and solid support having the protein attached thereto” (Japan Tobacco Inc., priority 2006, dated 2015)

Assays:
[1] = Activity measurement by means of fluorescent biotin (method of Kada et al.); format: binding; settings: room temperature, 10 minutes
Procedure: By means of fluorescent biotin, tamavidin 2 was measured for its biotin-binding activity according to the method of Kada et al. (Biochim. Biophys. Acta., 1427: 44-48, (1999)). Solutions were prepared to contain the purified TM2 at stepwise concentrations from 0 pmol to 486 pmol in 200 μl assay buffer (50 mM NaH2PO4, 100 mM NaCl, 1 mM EDTA (pH 7.5)). These solutions were each mixed with 50 μL (1 nmol) of a 20 pmol/μL fluorescent biotin solution (biotin-4-fluorescein; Molecular Probe) and allowed to stand at room temperature for 10 minutes, followed by measuring the fluorescence intensity with a Las-3000 system (FUJIFILM). As a result, 0.274 nmol of TM2 was bound to nmol of fluorescent biotin. Namely, 3.6 mol of fluorescent biotin was bound to 1 mol of tamavidin. […] In the case of streptavidin, 3.4 mol of fluorescent biotin was bound per mol of streptavidin.

[2] = tested on: salmon sperm DNA; test: Test for non-specific binding to DNA (slot blot, antibody detection); settings: 25 μg/mL protein, salmon sperm DNA 10 μg to 0.3 μg on membrane
Procedure: TM2 was analyzed for its non-specific binding to DNA. Serial dilutions of salmon sperm DNA (10 μg to 0.3 μg) in 2×SSC buffer were alkali-denatured and adsorbed onto a Hybond N+ membrane (Amersham Biosciences) using Bio-Dot SF (BIO-RAD). The membrane was blocked with 5×Denhardt's solution (0.1% BSA, 0.1% Ficoll, 0, 1% polyvinylpyrrolidone) and then immersed in a 25 μg/mL TM2, streptavidin or avidin solution at room temperature for 90 minutes. The membrane was then washed three times with TTBS buffer (TBS buffer containing 0.05% Tween 20) at room temperature for 5 minutes. The membrane was blocked with TBS buffer containing 0.5% skimmed milk and 0.01% Tween 20 for 1 hour. The primary antibodies used were rabbit anti-TM2 antibody (purified as described above) for TM2, rabbit anti-streptavidin antibody (SIGMA) for streptavidin, and rabbit anti-avidin antibody (Abcam) for avidin, which were diluted to give the same antibody titer before use. Antigen-antibody reaction with each primary antibody was performed overnight at room temperature. […] The membrane was washed three times with TTBS buffer at room temperature for 5 minutes, and then developed with an Alkaline Phosphatase substrate kit II, vector Black (Funakoshi Co., Ltd., Japan), followed by quantification with a Las-3000 system (FUJIFILM).

[3] = Heat resistance: protein stability (heating, SDS-PAGE band quantification); format: physicochemical; settings: heated 20 minutes, soluble protein, SDS-PAGE, no biotin
Procedure: (§1) 0.2 μg/μL TM2 and 0.2 μg/μL streptavidin were heated in 10 μL (2 μg) volumes at room temperature, 50° C., 60° C., 70° C., 80° C., 90° C. or 99° C. for 20 minutes, followed by centrifugation at 15000 rpm for 10 minutes. Each supernatant (soluble protein) was suspended in an equal volume of 2×SDS sample buffer (100 mM Tris-HCl pH 6.8, 12% 2-mercaptoethanol, 2% SDS, 20% glycerol), heated at 95° C. for 10 minutes and then analyzed by SDS-PAGE. Protein bands were detected by CBB staining. Using a Las-3000 system (FUJIFILM), a calibration curve was prepared based on quantification markers (LMW ELECTROPHORESIS CALIBRATION KIT; Pharmacia Biotech) and used to quantify the protein bands. […]
as §1, with “Purified tamavidin 1 at a concentration of 0.2” for “0.2”, “was” for “TM2 and 0.2 μg/μL streptavidin were”

[4] = Heat resistance: fluorescent biotin-binding activity of heated biotin-binding proteins; settings: for temperature which caused a 50% reduction in fluorescence intensity decrement compared to the unheated sample: free protein, heated 20 minutes; for reduction of binding activity to fluorescent biotin: 20 minutes
Procedure: Based on the property of fluorescent biotin to lose its fluorescence intensity when bound to a biotin-binding site in a biotin-binding protein, tamavidin 2 was compared with streptavidin and avidin for biotin-binding capacity under high temperature conditions.
About 0.25 μg/μL TM2 and streptavidin were heated at room temperature, 50° C., 60° C., 70° C., 80° C. or 90° C. for 20 minutes. Solutions were prepared to contain the heat-treated TM2 or streptavidin at stepwise concentrations from 0 μL to 27 μL in 150 μL assay buffer (50 mM NaH2PO4, 100 mM NaCl, 1 mM EDTA (pH 7.5)). These solutions were each mixed with 50 μL (250 pmol) of a 5 pmol/μL fluorescent biotin solution (biotin-4-fluorescein; Molecular Probe) and allowed to stand at room temperature for 20 minutes, followed by measuring the fluorescence intensity with a Las-3000 system (FUJIFILM).
Heat resistance test on the biotin-binding proteins was accomplished as follows. About 0.25 μg/μL biotin-binding protein was heated at room temperature, 50° C., 60° C., 70° C., 80° C. or 90° C. for 20 minutes. Solutions were prepared to contain the heated biotin-binding protein at stepwise concentrations from 0 μL to 12 μL in 150 μL assay buffer. These solutions were each mixed with 50 μL (100 pmol) of a 2 pmol/μL fluorescent biotin solution and allowed to stand at room temperature for 20 minutes, followed by measuring the fluorescence intensity at Ex=460 nm and Em=525 nm with an Infinite M200 (TECAN).

[5] = background art; cited from earlier work
[6] = Kinetic analysis of tamavidin 2-biotin interaction using a Biacore 3000 biosensor (surface plasmon resonance); format: binding; settings: Biacore 3000, 25° C.
Procedure: Kinetic Analysis of Tamavidin 2 (TM2)-Biotin Interaction Using a Biacore Biosensor
Highly-purified BSA (2 mg, Sigma) and NHS-biotin (1 mg, Pierce) were dissolved in 1 ml of 50 mM sodium borate pH 8.0 and incubated at 4° C. for 2 hours. The NHS-biotin (EZ-Link NHS-LC-LC-Biotin) had been dissolved in a small volume of DMSO before addition. This solution was introduced into a dialysis tube (MWCO 6-8,000) and dialyzed overnight at 4° C. against 50 mM sodium carbonate pH 6.7. The biotin-BSA conjugate thus prepared (MW 67 kDa, 30 μM) was used as a ligand (a substance immobilized on a sensor chip) for a Biacore® biosensor. On the other hand, recombinant tamavidin 2 was prepared as an analyte (a substance flowing through channels) and analyzed for intermolecular interactions using a Biacore® 3000 (a biosensor designed on the principle of surface plasmon resonance, Biacore Inc.). Biotin-BSA and BSA alone (serving as a negative control) were each immobilized on CM5 sensor chips by amine coupling techniques. Their immobilized amount was adjusted to around 200 RU. BSA-immobilized chips were placed in flow cells 1 and 3, while biotin-BSA-immobilized chips were placed in flow cells 2 and 4. Tamavidin 2 was loaded into flow cells 1 and 2, while streptavidin was loaded into flow cells 3 and 4, each being loaded at a flow rate of 20 μl/min for 2 minutes in running buffer [10 mM HEPES pH 7.4, 150 mM NaCl, 3 mM EDTA, 0.005% Surfactant 20 (Biacore Inc.)]. The samples were then monitored for their dissociation over 60 minutes. […] The dissociation constant (Kd) was determined from kd/ka.
It should be noted that when the regeneration step was skipped, Rmax (the maximum binding amount of an analyte) was reduced ever time the measurement at each concentration was made. For this reason, Rmax was calculated by local fitting for each concentration during analysis. […]

[7] = 1:1 binding model, biotin-BSA ligand

Substance | fluorescent biotin bound per mol of protein [1] | non-specific binding to DNA (staining intensity versus DNA concentration) [2] | temperature which caused a 50% reduction in protein band intensity [3] | temperature which caused a 50% reduction in fluorescence intensity decrement compared to the unheated sample [4] | reduction of binding activity to fluorescent biotin ([4]; heated at 70° C.) | reduction of binding activity to fluorescent biotin ([4]; heated at 80° C.) | isoelectric point [5] | Association rate constant ks [6, 7] | Dissociation rate constant kd [6, 7] | Kd ([6]; determined from kd/ka, read-out: Dissociation constant Kd)
Streptavidin: biotin-binding protein derived from an actinomycete strain (Streptomyces avidinii) [reference compound] | 3.4 mol | not strongly affected by DNA concentration | 71 °C | 73 °C | 40% | 80% | around neutral pH | 2.28e+06 M⁻¹ s⁻¹ | 2.52e-06 s⁻¹ | 1.11 pM
avidin: albumen-derived basic glycoprotein binding biotin |  | DNA concentration-dependent increase in its staining intensity |  | 78 °C | 10% | 70% | exceeding 10 |  |  | 
